This note sets out measurements from ChEMBL document CHEMBL1139787, “Synthetic tyrosyl gallate derivatives as potent melanin formation inhibitors” (Bioorg Med Chem Lett, 2007).

Molecules are shown by their SMILES. Bounds are passed on as bounds.

Assay [1] is described as follows: Cytotoxicity againt Melan-a cells by MTT assay. In kind it is cell-based. Conditions: Mus musculus. For orientation: Tetrazolium assays rely on reduction of a dye to a coloured formazan, in cell work by metabolically active cells.
The nature of assay [2]: DPPH radical scavenging activity after 30 mins. In kind it is functional. For orientation: The DPPH test is a chemical assay of radical scavenging.
Assay [3] has as its target Tyrosinase (Mus musculus) (UniProt P11344). As to the kind of experiment: Inhibition of tyrosinase in Melan-a cells.
Assay [4] can be described thus: Inhibition of melanin formation in Melan-a cells after 5 days. In kind it is functional, cell-based. Conditions: 120 h.

Tyrosinase (Mus musculus), sequence (P11344 whole entry, looked up): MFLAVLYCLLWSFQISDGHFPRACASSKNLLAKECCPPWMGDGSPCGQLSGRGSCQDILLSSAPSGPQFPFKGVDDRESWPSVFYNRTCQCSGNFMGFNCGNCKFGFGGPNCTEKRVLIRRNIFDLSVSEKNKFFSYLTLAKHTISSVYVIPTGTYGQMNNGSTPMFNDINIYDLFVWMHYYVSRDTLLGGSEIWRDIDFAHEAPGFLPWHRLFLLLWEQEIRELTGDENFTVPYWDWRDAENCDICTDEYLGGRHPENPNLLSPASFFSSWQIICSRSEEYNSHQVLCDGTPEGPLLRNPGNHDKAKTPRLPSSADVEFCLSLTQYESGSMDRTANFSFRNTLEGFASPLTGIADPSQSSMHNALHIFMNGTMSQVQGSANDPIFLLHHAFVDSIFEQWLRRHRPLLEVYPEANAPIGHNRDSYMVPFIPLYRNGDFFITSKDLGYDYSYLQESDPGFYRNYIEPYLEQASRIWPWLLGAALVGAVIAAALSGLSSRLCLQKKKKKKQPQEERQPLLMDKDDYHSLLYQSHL

With `O=C(OCCc1ccc(O)cc1)c1cc(O)c(O)c(O)c1`, the IC50 (usually the concentration at which inhibition is half-maximal) in assay [1] was greater than 10 µM; in assay [2], 7.52 µM; in assay [3], 4.93 µM.
As to `O=C(OCCc1cccc(O)c1)c1cc(O)c(O)c(O)c1`, the IC50 in assay [4] was 8.94 µM; in assay [1], greater than 50 µM; in assay [2], 7.78 µM; in assay [3], 15.2 µM.
The corresponding values for `O=C(OCCc1ccccc1O)c1cc(O)c(O)c(O)c1` are 13.7 µM, greater than 50 µM, 8.31 µM and 14.5 µM.
In assay [2], `Cc1c(C)c2c(c(C)c1O)CC[C@@](C)(CCCC(C)CCCC(C)CCCC(C)C)O2` (single isomer, unassigned) [ALPHA-TOCOPHEROL] gave an IC50 of 9.89 µM.
On to `OC[C@H]1O[C@@H](Oc2ccc(O)cc2)[C@H](O)[C@@H](O)[C@@H]1O` [ARBUTIN], for which the IC50 was 118 µM in assay [4] and greater than 1500 µM in assay [1].
`O=C1O[C@H]([C@@H](O)CO)C(O)=C1O` [ASCORBIC ACID]: it took 13.6 µM to reach half-maximal inhibition in assay [2] (IC50).
